Assay results reported in PubChem BioAssay (NCI).
Several values for one entry are separate records, joined by “and”; a condition that tells them apart may be missing. Equal entries are not always repeated.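 Results reflect a 48-hour exposure of cells in 96-well plates to compound at five concentrations. At the GI50, growth is halved. TGI is the concentration that stops growth completely.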

How the values were obtained:
Assay in all cases: growth of human tumour cells (NCI), 48 h
UO-31 renal = test system: UO-31 renal
NCI-H226 lung = test system: NCI-H226 lung
U251 CNS = test system: U251 CNS
HCT-116 colon = test system: HCT-116 colon
HS 578T breast = test system: HS 578T breast
SNB-19 CNS = test system: SNB-19 CNS
SF-268 CNS = test system: SF-268 CNS
HOP-92 NSCLC = test system: HOP-92 NSCLC
HL-60(TB) leukemia = test system: HL-60(TB) leukemia
SK-MEL-28 melanoma = test system: SK-MEL-28 melanoma
UACC-257 melanoma = test system: UACC-257 melanoma
SR leukemia = test system: SR leukemia
COLO 205 colon = test system: COLO 205 colon
UACC-62 melanoma = test system: UACC-62 melanoma
SK-OV-3 ovarian = test system: SK-OV-3 ovarian
HOP-62 NSCLC = test system: HOP-62 NSCLC
MCF7 breast = test system: MCF7 breast
ACHN renal = test system: ACHN renal
MDA-MB-231 breast = test system: MDA-MB-231 breast
HCC-2998 colon = test system: HCC-2998 colon
LOX IMVI melanoma = test system: LOX IMVI melanoma
SF-295 CNS = test system: SF-295 CNS
CAKI-1 renal = test system: CAKI-1 renal
SK-MEL-2 melanoma = test system: SK-MEL-2 melanoma
IGROV1 ovarian = test system: IGROV1 ovarian
RXF 393 renal = test system: RXF 393 renal
MDA-MB-435 = test system: MDA-MB-435
NCI/ADR-RES ovarian = test system: NCI/ADR-RES ovarian
MALME-3M melanoma = test system: MALME-3M melanoma
M14 melanoma = test system: M14 melanoma

In the case of `C[C@]12CC[C@H](OC3OC(O)C(O)C(O)C3O)C=C1CCC1C2CC[C@]2(C)[C@@H](c3ccc(=O)oc3)CC[C@]12O` (stereo partly drawn), the TGI (UO-31 renal) is reported as 16.8 nM and 8.11 nM, the GI50 (NCI-H226 lung) is reported as 2.62 nM and 5.27 nM and the TGI (NCI-H226 lung) is reported as 8.62 nM and 11.3 nM. For the same compound, the GI50 (U251 CNS) was 3.82 nM and 5 nM, the TGI (U251 CNS) was 14.1 nM and 9.03 nM and the GI50 (HCT-116 colon) was 3.62 nM and 5 nM. For the same compound, the TGI (HCT-116 colon) was 11.9 nM and 6.71 nM, the GI50 (HS 578T breast) was 2.24 nM and the TGI (HS 578T breast) was 50.6 nM. The GI50 (SNB-19 CNS) was 6.88 nM and 5 nM, the TGI (SNB-19 CNS) was 50.6 nM and 28.7 nM and the GI50 (SF-268 CNS) was 3.73 nM and 5 nM. For the same compound, the TGI (SF-268 CNS) was 12.8 nM and 6.07 nM, the GI50 (HOP-92 NSCLC) was 3.94 nM and 7.24 nM and the TGI (HOP-92 NSCLC) was 34.2 nM and 29.2 nM. For the same compound, the GI50 (HL-60(TB) leukemia) was 2.27 nM, the TGI (HL-60(TB) leukemia) was 5.12 nM and the GI50 (SK-MEL-28 melanoma) was 5.85 nM and 6.06 nM. For the same compound, the TGI (SK-MEL-28 melanoma) was 20 nM and 13.8 nM, the GI50 (UACC-257 melanoma) was 10.6 nM and 5.17 nM and the TGI (UACC-257 melanoma) was 24.2 nM and 11.5 nM. The GI50 (SR leukemia) was 2.21 nM, the TGI (SR leukemia) was 6.19 nM and the GI50 (COLO 205 colon) was 15.3 nM and 7.93 nM. For the same compound, the TGI (COLO 205 colon) was 35.8 nM and 17.1 nM, the GI50 (UACC-62 melanoma) was 6.26 nM and 7.83 nM and the TGI (UACC-62 melanoma) was 21.4 nM and 17.6 nM. For the same compound, the GI50 (SK-OV-3 ovarian) was 3.65 nM and 5 nM, the TGI (SK-OV-3 ovarian) was 12 nM and 6.59 nM and the GI50 (HOP-62 NSCLC) was 1.78 nM. For the same compound, the TGI (HOP-62 NSCLC) was 3.28 nM, the GI50 (MCF7 breast) was 3.42 nM and 5 nM and the TGI (MCF7 breast) was 65.4 nM and 14.4 nM. The GI50 (ACHN renal) was 3.49 nM and 5 nM, the TGI (ACHN renal) was 11.9 nM and 5.78 nM and the GI50 (MDA-MB-231 breast) was 19.4 nM and 15.6 nM. For the same compound, the TGI (MDA-MB-231 breast) was 100 nM and 60.2 nM, the GI50 (HCC-2998 colon) was 4.67 nM and 5 nM and the TGI (HCC-2998 colon) was 25.2 nM and 16.5 nM. The GI50 (LOX IMVI melanoma) was 3.33 nM and 5 nM, the TGI (LOX IMVI melanoma) was 12 nM and 7.7 nM and the GI50 (SF-295 CNS) was 3.16 nM and 5 nM. The TGI (SF-295 CNS) was 80.9 nM and 13 nM, the GI50 (CAKI-1 renal) was 3.57 nM and 5 nM and the TGI (CAKI-1 renal) was 24.8 nM and 17.3 nM. For the same compound, the GI50 (SK-MEL-2 melanoma) was 3.53 nM and 7.62 nM, the TGI (SK-MEL-2 melanoma) was 10.3 nM and 17.7 nM and the GI50 (IGROV1 ovarian) was 4.64 nM and 5 nM. The GI50 (RXF 393 renal) was 1.79 nM, the TGI (RXF 393 renal) was 3.9 nM and the GI50 (MDA-MB-435) was 4.03 nM and 5.78 nM. For the same compound, the TGI (MDA-MB-435) was 21.2 nM and 19.2 nM, the GI50 (NCI/ADR-RES ovarian) was 2.64 nM and 5 nM and the TGI (NCI/ADR-RES ovarian) was 7.55 nM and 6.47 nM. For the same compound, the GI50 (MALME-3M melanoma) was 3.28 nM and 5 nM, the TGI (MALME-3M melanoma) was 9.89 nM and 11.8 nM and the GI50 (M14 melanoma) was 14.8 nM and 9.18 nM. For the same compound, the TGI (M14 melanoma) was 29.9 nM and 19.9 nM.
